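48-hour exposure; five concentrations; linearly interpolated endpoints. The concentration for 50% growth inhibition is given as GI50. TGI: concentration producing complete growth inhibition.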
Key:
Test in all cases: NCI anticancer screen, dose series, 48 h
[1] = test system: 786-0 renal
[2] = test system: A498 renal
[3] = test system: A549 NSCLC
[4] = test system: ACHN renal
[5] = test system: BT-549 breast
[6] = test system: CAKI-1 renal
[7] = test system: CCRF-CEM leukemia
[8] = test system: COLO 205 colon
[9] = test system: DU-145 prostate
[10] = test system: EKVX NSCLC
[11] = test system: HCC-2998 colon
[12] = test system: HCT-116 colon
[13] = test system: HCT-15 colon
[14] = test system: HL-60(TB) leukemia
[15] = test system: HOP-62 NSCLC
[16] = test system: HOP-92 NSCLC
[17] = test system: HS 578T breast
[18] = test system: HT29 colon
[19] = test system: IGROV1 ovarian
[20] = test system: K-562 leukemia
[21] = test system: KM12 colon
[22] = test system: LOX IMVI melanoma
[23] = test system: M14 melanoma
[24] = test system: MALME-3M melanoma
[25] = test system: MDA-MB-231 breast
[26] = test system: MDA-MB-435
[27] = test system: MOLT-4 leukemia
[28] = test system: NCI-H226 lung
[29] = test system: NCI-H23 lung
[30] = test system: NCI-H460 lung
[31] = test system: NCI-H522 lung
[32] = test system: NCI/ADR-RES ovarian
[33] = test system: OVCAR-3 ovarian
[34] = test system: OVCAR-4 ovarian
[35] = test system: OVCAR-5 ovarian
[36] = test system: OVCAR-8 ovarian
[37] = test system: PC-3 prostate
[38] = test system: RPMI-8226 leukemia
[39] = test system: RXF 393 renal
[40] = test system: SF-268 CNS
[41] = test system: SF-295 CNS
[42] = test system: SF-539 CNS
[43] = test system: SK-MEL-2 melanoma
[44] = test system: SK-MEL-28 melanoma
[45] = test system: SK-MEL-5 melanoma
[46] = test system: SK-OV-3 ovarian
[47] = test system: SN12C renal
[48] = test system: SNB-19 CNS
[49] = test system: SNB-75 CNS
[50] = test system: SR leukemia
[51] = test system: SW-620 colon
[52] = test system: T-47D breast
[53] = test system: TK-10 renal
[54] = test system: U251 CNS
[55] = test system: UACC-257 melanoma
[56] = test system: UACC-62 melanoma
[57] = test system: UO-31 renal

## Cc1ccc2c(n1)C(=O)C(Cl)=C(Nc1cccc(C(C)C)c1)C2=O
[1]
  GI50: 2.18 µM
  TGI: 5.44 µM
[2]
  GI50: 6.56 µM
  TGI: 19.9 µM
[3]
  GI50: 3.66 µM
  TGI: 14 µM
[4]
  GI50: 1.69 µM
  TGI: 3.12 µM
[5]
  GI50: 2.45 µM
  TGI: 10.8 µM
[6]
  GI50: 1.88 µM
  TGI: 6.22 µM
[7]
  GI50: 2.36 µM
  TGI: 19.9 µM
[8]
  GI50: 3.33 µM
  TGI: 12.1 µM
[9]
  GI50: 1.86 µM
  TGI: 3.82 µM
[10]
  GI50: 1.59 µM
  TGI: 3.24 µM
[11]
  GI50: 3.95 µM
  TGI: 13.7 µM
[12]
  GI50: 1.52 µM
  TGI: 3.55 µM
[13]
  GI50: 1.43 µM
  TGI: 3.36 µM
[14]
  GI50: 1.73 µM
  TGI: 6.41 µM
[15]
  GI50: 2.7 µM
  TGI: 10.8 µM
[16]
  GI50: 1.76 µM
  TGI: 3.58 µM
[17]
  GI50: 2.29 µM
  TGI: 6.16 µM
[18]
  GI50: 3.84 µM
  TGI: 31.4 µM
[19]
  GI50: 1.56 µM
  TGI: 3.1 µM
[20]
  GI50: 2.47 µM
  TGI: > 100 µM
[21]
  GI50: 4.94 µM
  TGI: 28.6 µM
[22]
  GI50: 0.698 µM
  TGI: 2.54 µM
[23]
  GI50: 2.94 µM
  TGI: 10.1 µM
[24]
  GI50: 1.65 µM
  TGI: 3.18 µM
[25]
  GI50: 1.37 µM
  TGI: 3.01 µM
[26]
  GI50: 1.71 µM
  TGI: 3.16 µM
[27]
  GI50: 2.27 µM
  TGI: > 100 µM
[28]
  GI50: 1.48 µM
  TGI: 3.59 µM
[29]
  GI50: 1.58 µM
  TGI: 4.55 µM
[30]
  GI50: 3.42 µM
  TGI: 13.5 µM
[31]
  GI50: 2.25 µM
  TGI: 5.6 µM
[32]
  GI50: 2.49 µM
  TGI: 9.13 µM
[33]
  GI50: 0.617 µM
  TGI: 2.91 µM
[34]
  GI50: 1.35 µM
  TGI: 2.64 µM
[35]
  GI50: 2.17 µM
  TGI: 4.55 µM
[36]
  GI50: 2.53 µM
  TGI: 8.97 µM
[37]
  GI50: 2.17 µM
  TGI: 16.3 µM
[38]
  GI50: 1.5 µM
  TGI: 5.18 µM
[39]
  GI50: 1.29 µM
  TGI: 2.56 µM
[40]
  GI50: 3.17 µM
  TGI: 34.6 µM
[41]
  GI50: 3.5 µM
  TGI: 11.5 µM
[42]
  GI50: 1.71 µM
  TGI: 3.15 µM
[43]
  GI50: 3.72 µM
  TGI: 12.8 µM
[44]
  GI50: 2.4 µM
  TGI: 5.58 µM
[45]
  GI50: 1.67 µM
  TGI: 3.06 µM
[46]
  GI50: 13.2 µM
  TGI: 26.7 µM
[47]
  GI50: 1.76 µM
  TGI: 4.54 µM
[48]
  GI50: 3.23 µM
  TGI: 13.6 µM
[49]
  GI50: 1.4 µM
  TGI: 3.19 µM
[50]
  GI50: 1.63 µM
  TGI: > 100 µM
[51]
  GI50: 1.94 µM
  TGI: 4.03 µM
[52]
  GI50: 1.61 µM
  TGI: 4.15 µM
[53]
  GI50: 4.67 µM
  TGI: 13.8 µM
[54]
  GI50: 2.94 µM
  TGI: 11.1 µM
[55]
  GI50: 1.59 µM
  TGI: 3.07 µM
[56]
  GI50: 2.05 µM
  TGI: 4.64 µM
[57]
  GI50: 1.49 µM
  TGI: 2.83 µM
